These results are taken from patent US20130123208A1, “METHOD OF TREATING MULTIPLE SCLEROSIS WITH ADENOSINE RECEPTOR AGONISTS” (THE REGENTS OF THE UNIVERSITY OF COLORADO, a body …, priority 2010, published 2013).

The subject of assay [1] is rats with EAE (MOG-induced Experimental Autoimmune Encephalitis). Kind of assay: EAE model, motor score after single intrathecal bolus.
Protocol: The EAE model described above was used. Motor score was assessed three days before and daily post MOG administration (8.25 ug intradermally). At the onset of motor symptoms (partial tail paralysis, motor score 1) rats were randomly injected with an A2A agonist, CGS21680 (3-[4-[2-[[6-amino-9-[(2R,3R,4S,5S)-5-(ethylcarbamoyl)-3,4-dihydroxy-oxolan-2-yl]purin-2-yl]amino]ethyl]phenyl]propanoic acid) (10 μM) or vehicle.
The subject of assay [2] is neuropathic pain. Conditions: duration of effect ~35 days; cited from earlier work.
Assay [3] relates to rat spines (EAE). Nature of the assay: FLAIR and T2-weighted MRI on rat spines in EAE. Conditions: ATL313 treated animals with preserved motor scores. In kind it is in vivo. Here is the method:
ATL313 (4-{3-[6-amino-9-(5-cyclopropylcarbamoyl-3,4-dihydroxy-tetrahydro-furan-2-yl)-9H-purin-2-yl]-prop-2-ynyl}-piperidine-1-carboxylic acid methyl ester) (single bolus 1 μM-not shown and 10 μM) was used in the EAE model as described above (8-9 rats/group). The change in motor symptoms and the survival curve for ATL313 (10 μM) are shown in FIGS. 4A and 4B, respectively. 1 μM ATL313 produced a reduction in motor score lasting approximately 10 days.

Assay [4] relates to rats with EAE. Kind of assay: EAE model, survival curve (time to motor score 6 or higher). Type of assay: in vivo, Male Dark Agouti rats. From the text: In a separate group of rats from Example 1, MOG was intradermally administered as described above. […] The time at which motor score reached 6 or higher after the onset of motor symptoms is represented on the survival curve shown in FIG. 2. […] A single intrathecal injection of an A2A agonist, CGS21680, improved survival percentage in rats with EAE.

The test system of assay [5] is cd68 (classically activated macrophage marker). Kind of assay: Immunohistochemistry of the dorsal spinal cord, cd68. Type of assay: in vivo, rats. Conditions: motor score 6 or higher or 24 days post onset, vs vehicle, P<0.05 (FIG. 3).
The subject of assay [6] is OX-42 (microglial activation marker). Kind of assay: Immunohistochemistry of the dorsal spinal cord, OX-42. Type of assay: in vivo, rats. Conditions: motor score 6 or higher or 24 days post onset, vs vehicle, P<0.05 (FIG. 3).

“Also recorded” adds a separate entry of the source.

Take `COC(=O)N1CCC(CC#Cc2nc(N)c3ncn([C@@H]4O[C@H](C(=O)NC5CC5)C(O)C4O)c3n2)CC1` (stereo in doubt) [ATL313, 4-{3-[6-amino-9-(5-cyclopropylcarbamoyl-3,4-dihydroxy-tetrahydro-furan-2-yl)-9H-purin-2-yl]-prop-2-ynyl}-piperidine-1-carboxylic acid methyl ester]: the “duration of attenuation of motor effects of EAE, at worst” value in assay [1] (5 ng intrathecal single bolus) is given as ~35 days. In assay [1] (5 ng intrathecal single bolus at initial onset of motor impairment (FIG. 5A)), the “progression of motor impairment/dysfunction induced by EAE” value was “good attenuation of progression of motor impairment/dysfunction”. The “number of animals where motor deterioration is arrested with no further progression” value in assay [1] (5 ng intrathecal, first group (FIG. 5B)) amounted to 6. In addition, the “number of rats whose motor symptoms continued on the usual course at around day 35” value in assay [1] (5 ng intrathecal, second group (FIG. 5C)) amounted to 3. Besides, the “duration of reduction in motor score” value in assay [1] (1 μM single intrathecal bolus) is reported as “approximately 10 days”. For the same compound, the “duration of arrest of progression of motor score symptoms” value in assay [1] (10 μM single intrathecal injection (FIG. 4A)) is on record as > 80 days. Further, the “duration of suppression of paralysis” value in assay [1] (FIG. 6 legend, other sub-group) is ~4 week. Besides, the paralysis result in assay [1] (FIG. 6 legend, surviving ATL313 rats) was “arrests paralysis in every surviving ATL313 rat”. Also, the neuropathic pain entry in assay [2] is “attenuates neuropathic pain”. Moreover, the “MRI abnormalities (hyperintensity) of spine” value in assay [3] is reported as “only minimal abnormalities”. For the same compound, in assay [4] (10 μM intrathecal, at 70 days, with stabilized motor scores (FIG. 4B)), the rats still alive is 6/9. Besides, the survival rate result in assay [4] (10 μM single intrathecal injection, MOG+ATL313 vs MOG+vehicle (FIG. 4B)) is “increased survival rate”. In addition, the survival entry in assay [4] (FIG. 6 legend) is recorded as “markedly enhances survival”.
Turning to `CCNC(=O)[C@H]1O[C@@H](n2cnc3c(N)nc(NCCc4ccc(CCC(=O)O)cc4)nc32)[C@H](O)[C@@H]1O` [CGS21680, 3-[4-[2-[[6-amino-9-[(2R,3R,4S,5S)-5-(ethylcarbamoyl)-3,4-dihydroxy-oxolan-2-yl]purin-2-yl]amino]ethyl]phenyl]propanoic acid, reference compound], the “severity of motor symptoms (motor score)” value in assay [1] (10 μM, single intrathecal injection at onset of motor symptoms, vs vehicle (FIG. 1)) is on record as “reduced the severity of motor symptoms; also recorded: attenuated motor symptoms”. Besides, the cd68 staining result in assay [5] is listed as “significant reduction”. In assay [6], the OX-42 staining result is reported as “significant reduction”. Besides, the percentage of survival entry in assay [4] (10 μM intrathecal at onset of motor symptoms, day 25, vs vehicle, P<0.05 (FIG. 2)) is on record as “significant difference in percentage of survival”.
